Measurements taken from US7615361B2, “Toxicity screening methods” (Ceetox, Inc., priority 2006, dated 2009).

Experiments:
[1] = tested on: human hepatocytes; experiment: Predicted Ctox from Tox-Panel; format: cell-based; settings: 24 HR
Description: (§1) Studies such as these indicate that a preferred concentration for setting Ctox is the highest concentration at which there is no observed effect on any of the indicators being measured in the cluster analysis, especially a 24-hour cluster analysis. […] It will be apparent that 24 hour assays are more time-effective, and consequently, the 24 hour NOEL/Ctox represents a preferred data point to select as Ctox in a CATS assay. It will also be apparent that, with further time studies, it may be possible to select an equally suitable Ctox at other CATS assay time points (e.g., between 24 and 72 hours, or less than 24 hours).
In certain embodiments, the predicting comprises performing concentration response analyses of measurements from at least three separate assays that are employed in the cluster analysis. […] From these concentration response analyses, the highest concentration of the chemical compound at which a measurable toxic effect of the chemical compound is not observable, i.e. NOEL, is determined and the Ctox is identified as the concentration that correlates to the NOEL. […]
The results are summarized in Tables 14-17 and in FIGS. 83-102. […] Assay response is continually monitored to assure reliable results. […]

[2] = tested on: NRK cells; experiment: Predicted Ctox from Tox-Panel; format: cell-based, rat
Description: as §1
In certain embodiments, the predicting comprises performing concentration response analyses of measurements from at least three separate assays that are employed in the cluster analysis. For example, in the cell health cluster, such predicting will involve monitoring the concentration response effect of the compound on a first health indicator which monitors cellular replication, a second cell health indicator which monitors mitochondrial function, and a third cell health indicator which monitors membrane integrity. Of course, it is understood that fourth, fifth, sixth or more cell health indicators also may be employed. From these concentration response analyses, the highest concentration of the chemical compound at which a measurable toxic effect of the chemical compound is not observable, i.e. NOEL, is determined and the Ctox is identified as the concentration that correlates to the NOEL. In choosing the concentrations of the compound for analysis, one of skill in the art should devise a dose response regimen which is selected to provide an indication of cell health at concentrations of at least two concentration values higher than the Ctox concentration.
(§2) The third experiment was done to evaluate the specificity and selectivity of the test compound in another non-tumor cell that was derived from normal rat kidney tissue. In this experiment the test compound has no effect on cell number of acute cell death up to the 500 dilution after 6 and 24 hr of exposure (FIG. 76C and 77C). Significant effects were observed on mitochondrial markers at dilutions that dropped pH to 3.7. The bar graph in FIG. 82 summarizes these effects. […] In contrast the rat tumor cell line was sensitive to the test compound and cell death occurred at the 500 dilution and could not be attributed to low pH.

[3] = Cell number (propidium iodide); format: cell-based; settings: human, read-out: Cell Number TC50; for CC50 at 72 h: SK-MEL28 cells, SK-MEL28, 72 HR, run #2
Description: Cell Proliferation: Cell proliferation in each well was measured with propidium iodide (PI). This specific nucleic acid binding dye fluoresces when intercalated within the nucleic acids. The 15 nm shift enhances PI fluorescence approximately 20 times while the excitation maxima are shifted 30-40 nm. During method development experiments, it was determined that Triton-X-100 was the best solution to permeabilize the H4IIE cells thereby allowing the PI access to intracellular RNA and DNA. Fluorescence was measured using a Packard Fusion plate reader or equivalent reader at 540 nm excitation and 610 nm emission.
Cell Proliferation: After incubation, the test compound was removed and Triton X-100 solution containing propidium iodide is added. The plate was incubated and read on a fluorescent plate reader. Data was collected as relative fluorescent units (RFU). The blank was subtracted from the final well RFU. It represents the average of the first and last columns which contain no cells on that particular plate. The controls are untreated cells allowed to grow on the same plate. The compounds are represented by several separate RFU data points for each of the tested concentrations. The percent change relative to controls was calculated by dividing the average RFU by the control cell RFU and multiplying by 100.
Dosing solutions were prepared in complete culture medium.

[4] = Intracellular ATP levels; format: cell-based; settings: rat, NRK cells, read-out: ATP TC50
Description: Intracellular ATP Levels: Cellular Adenosine triphosphate (ATP) was determined with an assay based on a reaction between ATP+D-luciferin+oxygen catalyzed by luciferase to yield Oxyluciferin+AMP+PPi+CO2+light. The emitted light is proportional to the amount of ATP present. […] In addition, a unique cell lysis reagent inhibits endogenous ATPases and therefore stabilizes cellular ATP by preventing its degradation to ADP. ATP is present in all-living cells and declines rapidly upon cell death. In addition, this assay in combination with the MTT assay provides an indicator of mitochondrial activity and energy status of the cell.
Plates were analyzed immediately or stored at −20° C. until needed. On the day of analysis, the plates were thawed and calibration curve prepared with ATP in the same liquid matrix as samples. ATP was quantified by adding ATP substrate solution and then reading luminescence on a Packard Fusion Luminescence or equivalent plate reader.
Intracellular ATP Levels: ATP levels in treated cells could be determined by using the regression coefficients obtained from the linear regression analysis of the calibration curve. Thus, values could be expressed as pmoles ATP/million cells. Background corrected luminescence was used to determine percent change relative to controls by dividing treated values by control values and multiplying by 100.
as §2

SMILES | Predicted Ctox [1] [µM] | Predicted Ctox ([2]; 6 HR) [µM] | Predicted Ctox ([2]; 24 HR) [µM] | CC50 at 24 h ([3]; HUVEC) [µM] | CC50 at 72 h [3] [µM] | CC50 at 6 h [4] [µM] | CC50 at 24 h [4] [µM]
CC[C@@]1(O)C(=O)OCc2c1cc1n(c2=O)Cc2cc3ccccc3nc2-1 [CAMPTOTHECIN, Camptothecin] | 23 | 0.1 | 0.1 | 85 | 0.1 | 300 | 9
C=C(C)[C@H]1Cc2c(ccc3c2O[C@@H]2COc4cc(OC)c(OC)cc4[C@@H]2C3=O)O1 [ROTENONE, Rotenone] | 0.6 | 1 | 1 |  | 1 | 10 | 10
